Measurements as given in patent US20250289788A1, “HALOALKYL SULFONANILIDE COMPOUND AND HERBICIDE CONTAINING THE SAME” (SDS BIOTECH K.K., priority 2022, published 2025).

Experiments:
Assay type in all cases: in vivo
Ammannia multiflora (AM) = assay: Comparative Example: herbicidal efficacy test of treatment during growth stage under flooding conditions; conditions: treatment during growth stage (14 days after sowing), day 21 after treatment
Text: (§1) The control compound a is described as Compound No. III-1 on page 245 of PLT 5, and the control compound b is described as Compound No. III-9 on page 245 of PTL 5. […] As an example, herbicidal efficacy against critical paddy field weeds such as Monochoria vaginalis (MV) and Ammannia multiflora (AM) as well as Oryza sativa (OS) chemical damage were compared and are specifically described below as a Comparative Example.
(§2) [Comparative Example] Herbicidal Efficacy Test of Treatment During Growth Stage […] Under Flooding Conditions
(§3) After each 40-cm^2 plastic cup was loaded with puddled paddy field soil, seeds of each of Monochoria vaginalis (MV) or Ammannia multiflora (AM) were sown and grown in a greenhouse. After plants were grown for 14 days, one rice plant (variety: Nippon-bare) at the 2-leaf stage was transplanted at a transplanting depth of 1 cm. Water was flooded to a depth of 3 cm, and wettable powder containing the present invention compound, which had been adjusted according to Formulation Example 1, or each control compound was diluted with distilled water and applied dropwise to the water surface. The amount applied was 125, 63, or 31 g of active ingredient per hectare. The test was conducted in two series. On day 21 after treatment, the herbicidal efficacy and chemical damage were examined according to the following criteria.
(§4) 9-10 . . . Herbicidal activity “Maximum”, 90% or higher herbicidal efficacy or chemical damage
(§5) 7 to 8 . . . Herbicidal activity “high”, 70% or higher and less than 90% herbicidal efficacy or chemical damage
(§6) 5 to 6 . . . Herbicidal activity “medium”, 50% or higher and less than 70% herbicidal efficacy or chemical damage
(§7) 0 to 4 . . . Herbicidal activity “none to low”, 0% or higher and less than 50% herbicidal efficacy or chemical damage

[1] = system: Monochoria vaginalis (MV); assay: as above; conditions: treatment during growth stage (14 days after sowing), day 21 after treatment
Text: as §1, §2, §3, §4, §5, §6, §7

Oryza sativa (OS) = assay: Comparative Example: chemical damage to transplanted rice under flooding conditions; conditions: applied dropwise to water surface, day 21 after treatment
Text: as §1, §2, §3, §4, §5, §6, §7

[2] = system: Echinochloa crus-galli var. oryzicola (EC); assay: Test Example 1: herbicidal effect test using paddy field flooding treatment; conditions: dose 1000 g a.i./ha, water surface application, 21 days after treatment
Procedure: (§8) <Test Example 1> Herbicidal Effect Test Using Paddy Field Flooding Treatment
(§9) After each 40-cm^2 plastic cup was loaded with puddled paddy field soil, seeds of each of the following species were sown and grown in a greenhouse: Echinochloa crus-galli var. oryzicola (EC), Schoenoplectiella juncoides (SJ), Monochoria vaginalis (MV), or Ammannia multiflora (AM). After plants were grown for 14 days, water was flooded to a depth of 3 cm, and a 10% wettable powder, which had been adjusted according to Formulation Example 1, was diluted with distilled water and applied dropwise to the water surface. The amount applied was 1000, 500, 250, 125, 63, 31, or 16 g of active ingredient per hectare. The test was conducted in two series. Herbicidal efficacy (degree (%) of suppression of growth of terrestrial part: 100 (complete death) to 0 (no action)) was investigated at 21 days after the treatment.

[3] = system: Schoenoplectiella juncoides (SJ); assay: as above; conditions: dose 16 g a.i./ha, water surface application, 21 days after treatment
Procedure: as §8, §9

Structure (SMILES) | herbicidal efficacy AM (score 0-10) (Ammannia multiflora (AM); 31 g a.i./ha) | herbicidal efficacy AM (score 0-10) (Ammannia multiflora (AM); 63 g a.i./ha) | herbicidal efficacy AM (score 0-10) (Ammannia multiflora (AM); 125 g a.i./ha) | herbicidal efficacy MV (score 0-10) ([1]; 31 g a.i./ha) | herbicidal efficacy MV (score 0-10) ([1]; 63 g a.i./ha) | herbicidal efficacy MV (score 0-10) ([1]; 125 g a.i./ha) | chemical damage to transplanted rice OS (score 0-10) (Oryza sativa (OS); 31 g a.i./ha) | chemical damage to transplanted rice OS (score 0-10) (Oryza sativa (OS); 63 g a.i./ha) | chemical damage to transplanted rice OS (score 0-10) (Oryza sativa (OS); 125 g a.i./ha) | herbicidal efficacy (degree (%) of suppression of growth of terrestrial part) [2] [%] | herbicidal efficacy (degree (%) of suppression of growth of terrestrial part) [3] [%]
O=C1c2ccccc2CCN1Cc1ccccc1NS(=O)(=O)C(F)(F)F [Compound 3-1] | 10 | 10 | 10 | 10 | 10 | 10 | 0 | 0 | 0 | – | –
O=C1CCCCN1Cc1ccccc1NS(=O)(=O)C(F)(F)F [Compound a] | 10 | 10 | 10 | 10 | 10 | 10 | 6 | 10 | 10 | – | –
CCOC(=O)N(c1ccccc1CN1CCCCC1=O)S(=O)(=O)C(F)(F)F [Compound b] | 10 | 10 | 10 | 7 | 10 | 10 | 3 | 8 | 10 | – | –
O=C1Cc2cc(F)ccc2N1Cc1ccccc1NS(=O)(=O)C(F)(F)F [Compound 8-2] | – | – | – | – | – | – | – | – | – | ≥ 80 | –
CC=CC(=O)N(c1ccccc1CN1CCc2c(F)ccc(F)c2C1=O)S(=O)(=O)C(F)(F)F [Compound 3-116] | – | – | – | – | – | – | – | – | – | – | ≥ 80
CCOC(=O)N(c1ccccc1CN1CCc2ccccc2C1=O)S(=O)(=O)C(F)(F)F [Compound 3-139] | 10 | 10 | 10 | 7 | 10 | 10 | 0 | 0 | 0 | – | –
